ChEMBL document CHEMBL1136900, “Discovery of aminoheterocycles as a novel beta-secretase inhibitor class: pH dependence on binding activity part 1” (Bioorg Med Chem Lett, 2009)

What was measured:
[1] = Ratio of drug level in brain to plasma in mouse at 20 mg/kg, iv after 30 mins; type: ADME, organism-based; design: dose 20 mg/kg, route intravenous; conditions: brain and plasma, read-out: BPR
[2] = Drug level in mouse brain at 20 mg/kg, iv after 30 mins; type: ADME, organism-based; design: dose 20 mg/kg, route intravenous; conditions: read-out: Drug uptake
[3] = Dissociation constant, pKa of the compound; type: physicochemical

Row | Kp at 0.5 h [1] | concentration at 0.5 h [2] [µM] | pKa [3] | Structure (SMILES)
1 | 3.9 | 15 |  | Nc1nc(C2(c3ccc(Cl)cc3)CCCC2)cs1
2 |  |  | 5.5 | COc1ccc(C(Cc2cc([N+](=O)[O-])ccc2OC)c2csc(N)n2)cc1 (stereo not given)
3 |  |  | 8.1 | COc1ccc(C(Cc2cc([N+](=O)[O-])ccc2OC)c2c[nH]c(N)n2)cc1 (stereo not given)
4 |  |  | 8.3 | COc1ccc(C(Cc2cc([N+](=O)[O-])ccc2OC)c2cn(C)c(N)n2)cc1 (stereo not given)
